Square brackets hold non-standard residues; d marks the D form. Ends that are not written are not given here. pS = N[C@@H](COP(=O)(O)O)C(=O)O
Experiments:
CD8^+ T cells (PBMCs) = assay: Intracellular cytokine staining (ICS) of PBMCs after 7 days of stimulation with MHC-I-pP (healthy donors, HH patients); assay type: cell-based, human
Summary of the method: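 PBMCs or liver lymphocytes from HLA-A*0201-positive healthy donors and hereditary hemochromatosis patients were stimulated for 7 days with HLA-A*0201-restricted phosphopeptides and no added cytokines. After exclusion of doublets and dead cells with a fixable viability dye, CD3^+CD8^+ cells were analysed by intracellular staining for IFN-γ and TNF-α, plus CD107a where needed.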

[1] = system: expanded TIL / IHL cultures; assay: ICS for MHC-I-pP reactivity of liver-derived lymphocyte cultures after unspecific rapid expansion protocol (REP); assay type: cell-based, human
[2] = system: expanded lymphocyte cultures from deceased donor livers, cirrhotic livers and HCC; assay: ICS for MHC-I-pP reactivity of liver-derived lymphocyte cultures after phosphopeptide-specific expansion; assay type: cell-based, human
[3] = system: unexpanded lymphocyte cultures (CD8^+ T cells); assay: ICS for MHC-I-pP reactivity of lymphocyte cultures without expansion (Table 23, No Expansion); settings: HH6

Substance: KAFsPVRSV: ID2 phosphopeptide, HLA-A*0201 (KAF[pS]PVRSV; listed as Homo sapiens)
- Reactive CD8^+ T cell population, HH2 (CD8^+ T cells (PBMCs); HH patient HH2): 0 (<0.25% reactive CD8^-+ T cells)
- Reactive CD8^+ T cell population, HH3 (CD8^+ T cells (PBMCs); HH patient HH3): 0 (<0.25% reactive CD8^-+ T cells)
- Reactive CD8^+ T cell population, HH6 (CD8^+ T cells (PBMCs); HH patient HH6): 0 (<0.25% reactive CD8^-+ T cells)
- Reactive CD8^+ T cell population, HH8 (CD8^+ T cells (PBMCs); HH patient HH8): 0 (<0.25% reactive CD8^-+ T cells)
- Reactive CD8^+ T cell population, HH11 (CD8^+ T cells (PBMCs); HH patient HH11): 0 (<0.25% reactive CD8^-+ T cells)
- Reactive CD8^+ T cell population, HD1 (CD8^+ T cells (PBMCs); Healthy donor HD1): 0 (<0.25% reactive CD8^-+ T cells)
- Reactive CD8^+ T cell population, HD4 (CD8^+ T cells (PBMCs); Healthy donor HD4): 0 (<0.25% reactive CD8^-+ T cells)
- Reactive CD8^+ T cell population, HD5 (CD8^+ T cells (PBMCs); Healthy donor HD5): 0 (<0.25% reactive CD8^-+ T cells)
- Reactive CD8^+ T cells, Non-specific Expansion, Do2 ([1]; Do2): 0 (<0.25% reactive CD8^-+ T cells)
- Reactive CD8^+ T cells, Non-specific Expansion, Do4 ([1]; Do4): 0 (<0.25% reactive CD8^-+ T cells)
- Reactive CD8^+ T cells, Non-specific Expansion, HH6 ([1]; HH6): 0 (<0.25% reactive CD8^-+ T cells)
- Reactive CD8^+ T cells, pP-specific Expansion, Do2 ([2]; pP-specific Expansion, Do2): 0 (<0.25% reactive CD8^-+ T cells)
- Reactive CD8^+ T cells, pP-specific Expansion, Do4 ([2]; pP-specific Expansion, Do4): 0 (<0.25% reactive CD8^-+ T cells)
- Reactive CD8^+ T cells, pP-specific Expansion, HH6 ([2]; pP-specific Expansion, HH6): 0 (<0.25% reactive CD8^-+ T cells)
- ppCTL response, Deceased Donor Liver Do 2 ([2]; pP-specifically expanded culture, Deceased Donor Liver Do 2): 1 (0.25-2.5% reactive CD8-+ T cells)
- ppCTL response, Deceased Donor Liver Do 3 ([2]; pP-specifically expanded culture, Deceased Donor Liver Do 3): 0 (<0.25% reactive CD8-+ T cells)
- ppCTL response, Deceased Donor Liver Do 4 ([2]; pP-specifically expanded culture, Deceased Donor Liver Do 4): 0 (<0.25% reactive CD8-+ T cells)
- ppCTL response, Deceased Donor Liver Do 6 ([2]; pP-specifically expanded culture, Deceased Donor Liver Do 6): 0 (<0.25% reactive CD8-+ T cells)
- ppCTL response, End-stage Liver Cirrhosis IHL 11 ([2]; pP-specifically expanded culture, End-stage Liver Cirrhosis IHL 11): 0 (<0.25% reactive CD8-+ T cells)
- ppCTL response, End-stage Liver Cirrhosis IHL 12 ([2]; pP-specifically expanded culture, End-stage Liver Cirrhosis IHL 12): 0 (<0.25% reactive CD8-+ T cells)
- ppCTL response, End-stage Liver Cirrhosis IHL 13 ([2]; pP-specifically expanded culture, End-stage Liver Cirrhosis IHL 13): 0 (<0.25% reactive CD8-+ T cells)
- ppCTL response, End-stage Liver Cirrhosis IHL 15 ([2]; pP-specifically expanded culture, End-stage Liver Cirrhosis IHL 15): 0 (<0.25% reactive CD8-+ T cells)
- ppCTL response, HCC Distal HCC 1 ([2]; pP-specifically expanded culture, HCC 1 Distal): 0 (<0.25% reactive CD8-+ T cells)
- ppCTL response, HCC Tumor HCC 1 ([2]; pP-specifically expanded culture, HCC 1 Tumor): 0 (<0.25% reactive CD8-+ T cells)
- ppCTL response, HCC Distal HCC 4 ([2]; pP-specifically expanded culture, HCC 4 Distal): 0 (<0.25% reactive CD8-+ T cells)
- ppCTL response, HCC Distal HCC 9 ([2]; pP-specifically expanded culture, HCC 9 Distal): 0 (<0.25% reactive CD8-+ T cells)
- ppCTL response, HCC Tumor HCC 9 ([2]; pP-specifically expanded culture, HCC 9 Tumor): 0 (<0.25% reactive CD8-+ T cells)
- ppCTL response, HCC Distal HCC 12 ([2]; pP-specifically expanded culture, HCC 12 Distal): 0 (<0.25% reactive CD8-+ T cells)
- Reactive CD8^+ T cells, No Expansion, HH6 [3]: 0 (<0.25% reactive CD8^-+ T cells)

Source: US20190374627A1, “TARGET PEPTIDES FOR CANCER THERAPY AND DIAGNOSTICS” (priority 2016, published 2019)
